According to ChEMBL document CHEMBL3585338, “2-Hydroxy-3,4-naphthochalcone (2H-NC) inhibits TNFα-induced tumor invasion through the downregulation of NF-κB-mediated MMP-9 gene expression” (Bioorg Med Chem Lett, 2014):
Active and inactive are the calls of the source. The calls are words filed in the database; no cut-off is given here.

Columns and labels:
Assay type in all cases: cell-based
[1] = target: Inhibitor of NF-kappa-B kinase alpha/beta (Homo sapiens) (UniProt O14920+O15111); test: Inhibition of TNF-alpha-induced IKKalpha/beta phosphorylation at Ser176/180 in human MDA-MB-231 cells after 20 mins by immunoblot analysis
[2] = target: Transcription factor p65 (Homo sapiens) (UniProt Q04206); test: Inhibition of TNF-alpha-induced Rel-A phosphorylation at Ser536 in human MDA-MB-231 cells after 60 mins by immunoblot analysis
Chain of Transcription factor p65 (Homo sapiens) (Q04206 whole entry): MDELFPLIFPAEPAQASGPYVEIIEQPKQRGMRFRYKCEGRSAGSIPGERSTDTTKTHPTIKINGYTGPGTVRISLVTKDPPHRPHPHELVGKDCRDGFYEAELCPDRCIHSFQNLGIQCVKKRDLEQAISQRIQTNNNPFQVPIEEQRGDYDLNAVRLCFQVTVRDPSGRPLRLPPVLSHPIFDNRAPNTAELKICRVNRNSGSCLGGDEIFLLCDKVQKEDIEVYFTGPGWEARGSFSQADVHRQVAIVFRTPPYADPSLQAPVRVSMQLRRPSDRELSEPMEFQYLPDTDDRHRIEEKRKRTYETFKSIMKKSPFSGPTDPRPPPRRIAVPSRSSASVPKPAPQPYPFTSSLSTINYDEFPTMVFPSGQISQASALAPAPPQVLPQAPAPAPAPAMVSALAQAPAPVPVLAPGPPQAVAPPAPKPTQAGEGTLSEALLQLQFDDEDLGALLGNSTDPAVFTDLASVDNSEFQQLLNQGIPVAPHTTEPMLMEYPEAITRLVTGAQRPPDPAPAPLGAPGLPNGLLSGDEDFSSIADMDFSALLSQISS

[3] = target: Transcription factor p65 (Homo sapiens) (UniProt Q04206); test: Inhibition of TNF-alpha-induced Rel-A nuclear translocation in human MDA-MB-231 cells assessed as decrease in Rel-A phoshorylation at Ser536 at 20 uM pretreated for 30 mins prior to TNF-alpha stimulation measured after 60 mins by immunofluorescence microscopic analysis

inhibition [1]: Dose-dependent effect
inhibition [2]: Dose-dependent effect
inhibition [3]: Active
SMILES: O=C(/C=C/c1ccccc1)c1ccc2ccccc2c1O
